From BindingDB's records for patent US11174245 (Boehringer Ingelheim International, 2021)

Biological target: Epidermal growth factor receptor [695-1022,T790M,C797S,L858R] (Homo sapiens, UniProt P00533, C797S/L858R/T790M)
Assay: Biochemical EGFR Inhibition Assays ([…])
Set-up: 695-1022
Description: 5 μL of EGFR enzyme form in assay buffer (50 mM HEPES pH 7.3, 10 mM MgCl2, 1 mM EGTA, 0.01% Tween 20, 2 mM DTT) are dispensed into columns 1-23, than 5 μL of ATP and ULight-poly-GT substrate (PerkinElmer; TRF0100-M) mix in assay buffer is added to all wells (final assay concentration of the ULight-poly-GT substrate 200 nM). Each of the different EGFR enzyme form assays is available at high ATP levels (final assay concentration 100 μM). After 90 minutes incubation at room temperature 5 μL EDTA (final assay concentration 50 mM) and LANCE Eu-anti-P-Tyr (PT66) antibody (PerkinElmer, AD0069) (final assay concentration 6 nM) mix are added to stop the reaction and start the binding of the antibody. […] Each plate contains 16 wells of a negative control (diluted DMSO instead of test compound; w EGFR enzyme form; column 23) and 16 wells of a positive control (diluted DMSO instead of test compound; w/o EGFR enzyme form; column 24). Negative and positive control values are used for normalization and IC50 values are calculated and analysed using a 4 parametric logistic model.

Epidermal growth factor receptor [695-1022,T790M,C797S,L858R], sequence (P00533 695-1022 T790M/C797S/L858R): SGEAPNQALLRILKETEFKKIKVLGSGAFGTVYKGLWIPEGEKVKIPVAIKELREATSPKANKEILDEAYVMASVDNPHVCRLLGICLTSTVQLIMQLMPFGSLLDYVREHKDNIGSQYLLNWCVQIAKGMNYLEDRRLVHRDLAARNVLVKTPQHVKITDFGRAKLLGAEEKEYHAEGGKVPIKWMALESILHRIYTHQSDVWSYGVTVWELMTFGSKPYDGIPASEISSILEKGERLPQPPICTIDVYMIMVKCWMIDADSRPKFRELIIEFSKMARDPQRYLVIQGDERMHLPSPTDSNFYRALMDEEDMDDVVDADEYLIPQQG

IC50: 3 nM
SMILES: COc1ccncc1-c1cc(C(=O)/N=c2\[nH]c3cc(C4CCN(C(C)=O)CC4)ccc3n2CC(C)(C)O)ccn1 [US11174245, # I-031]
